Reference: patent US20050059725A1, “Methods of using and preparing thiolutin dioxide” (Aventis Pharma Deutschland GmbH, priority 2001, published 2005)

What was measured:
Type in all cases: biochemical
neurolysin = neurolysin (Homo sapiens, UniProt Q9BYT8); assay: Neurolysin inhibition assay (fluorogenic substrate, 384-well); conditions: substrate Mcc-Pro-Leu-Gly-D-Lys(Dnp)-OH 4 μM, 30° C., 30 min, Tris buffer pH 7.5
Experimental: An assay was performed on a CyBio pipetting system in a 384-well plate format in a final assay volume of 16 μl. In brief, 4 μl of appropriately diluted microbial extracts (dilution in 50 mM Tris buffer, pH 7.5) were distributed in wells of test plates (Greiner, white 384-small volume well plates). Thereafter, 4 μl of neurolysin (pre-diluted 1:5, 360 ng of protein) were added to each well. After a 10 minute pre-incubation of the samples and the enzyme at room temperature, the reaction was initiated by the addition of 8 μl of substrate (Mcc-Pro-Leu-Gly-D-Lys (Dnp)—OH, CALBIOCHEM) in Tris buffer. The final test concentration of the substrate was 4 μM.
After pipetting, the plates were immediately placed in a fluorometer (SpectraFluorplus, SLT) and the initial amount of fluorescence was read (λex: 360 nm/λem405 nm). The reaction was then allowed to proceed at 30° C. for 30 min, and a final fluorescence reading was taken.
The data are first blank corrected. Then, after subtracting the values at the zero time point from the respective values after 30 min, sample inhibition activity was expressed as 100−(Net Intensity compound/Net Intensity control)×100(%)
Each test plate contained a reasonable number of positive controls and blanks (buffer instead of enzyme).

enkephalinase = enkephalinase (Homo sapiens, UniProt P08473); assay: Selectivity against other zinc-containing metalloproteases: enkephalinase; conditions: selectivity statement
[1] = tested on: angiotensin converting enzymes; assay: Selectivity against other zinc-containing metalloproteases: angiotensin converting enzymes; conditions: selectivity statement

enkephalinase, sequence (P08473 whole entry, species assumed): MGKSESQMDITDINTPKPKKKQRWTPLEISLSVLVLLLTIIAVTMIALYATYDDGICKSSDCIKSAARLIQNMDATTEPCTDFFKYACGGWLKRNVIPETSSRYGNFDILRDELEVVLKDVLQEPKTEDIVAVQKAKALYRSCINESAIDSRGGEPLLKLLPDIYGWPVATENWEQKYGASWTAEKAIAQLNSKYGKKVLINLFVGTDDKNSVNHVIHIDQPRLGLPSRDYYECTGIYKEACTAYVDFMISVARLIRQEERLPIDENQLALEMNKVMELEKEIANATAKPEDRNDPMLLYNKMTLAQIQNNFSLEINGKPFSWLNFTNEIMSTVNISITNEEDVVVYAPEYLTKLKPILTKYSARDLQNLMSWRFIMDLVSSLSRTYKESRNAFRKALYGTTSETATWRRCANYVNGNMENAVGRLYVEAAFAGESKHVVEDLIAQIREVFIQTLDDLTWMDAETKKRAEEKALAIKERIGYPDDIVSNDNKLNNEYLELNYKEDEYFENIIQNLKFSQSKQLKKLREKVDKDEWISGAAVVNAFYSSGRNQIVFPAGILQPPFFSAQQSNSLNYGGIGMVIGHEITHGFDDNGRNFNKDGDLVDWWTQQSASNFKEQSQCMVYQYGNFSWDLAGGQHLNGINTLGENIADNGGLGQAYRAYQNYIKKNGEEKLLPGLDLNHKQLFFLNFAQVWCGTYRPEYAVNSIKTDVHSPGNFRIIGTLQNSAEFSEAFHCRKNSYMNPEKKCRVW
neurolysin, sequence (Q9BYT8 38-704): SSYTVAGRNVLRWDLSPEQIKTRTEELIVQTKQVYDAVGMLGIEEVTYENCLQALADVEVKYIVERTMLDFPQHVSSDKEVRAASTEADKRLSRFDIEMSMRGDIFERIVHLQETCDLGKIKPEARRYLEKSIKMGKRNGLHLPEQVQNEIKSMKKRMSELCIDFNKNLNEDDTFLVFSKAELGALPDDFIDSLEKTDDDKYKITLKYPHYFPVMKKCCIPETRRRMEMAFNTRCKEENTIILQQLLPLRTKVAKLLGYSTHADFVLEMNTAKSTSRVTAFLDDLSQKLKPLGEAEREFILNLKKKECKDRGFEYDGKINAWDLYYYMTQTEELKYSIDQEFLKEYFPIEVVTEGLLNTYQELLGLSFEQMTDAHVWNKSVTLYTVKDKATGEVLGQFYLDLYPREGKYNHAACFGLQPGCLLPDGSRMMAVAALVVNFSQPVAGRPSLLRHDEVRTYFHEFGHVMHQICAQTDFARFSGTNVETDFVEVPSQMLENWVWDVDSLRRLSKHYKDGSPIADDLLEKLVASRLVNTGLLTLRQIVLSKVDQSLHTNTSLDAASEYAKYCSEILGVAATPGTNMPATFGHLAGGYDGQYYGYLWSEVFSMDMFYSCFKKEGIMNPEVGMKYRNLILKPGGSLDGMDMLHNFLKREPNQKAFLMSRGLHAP

Q: Which results are given for `CC(=O)NC1=C2SS(=O)(=O)C=C2N(C)C1=O` [thiolutin dioxide]?
A: IC50 (neurolysin): 600 nM; blocking of enkephalinase (enkephalinase): does not block; blocking of angiotensin converting enzymes [1]: does not block
